Results on 15 compounds are retold here after patent publication US20250084101A1, “COMPOUND FOR INHIBITING AND DEGRADING IRAK4, AND PHARMACEUTICAL COMPOSITION AND PHARMACEUTICAL APPLICATION THEREOF” (XIZANG HAISCO PHARMACEUTICAL CO., LTD., priority 2022, published 2025).

Where a name gives a salt, the structure may show the parent alone. Read-outs that look alike come from different tables or passages of the source.

One data set addresses T1, IRAK4 protein (Homo sapiens, UniProt Q9NWZ3).
T1 construct: endogenous in cells; host or cells: human peripheral blood mononuclear cells (hPBMC) from healthy volunteers
T1 sequence (Q9NWZ3 1-460): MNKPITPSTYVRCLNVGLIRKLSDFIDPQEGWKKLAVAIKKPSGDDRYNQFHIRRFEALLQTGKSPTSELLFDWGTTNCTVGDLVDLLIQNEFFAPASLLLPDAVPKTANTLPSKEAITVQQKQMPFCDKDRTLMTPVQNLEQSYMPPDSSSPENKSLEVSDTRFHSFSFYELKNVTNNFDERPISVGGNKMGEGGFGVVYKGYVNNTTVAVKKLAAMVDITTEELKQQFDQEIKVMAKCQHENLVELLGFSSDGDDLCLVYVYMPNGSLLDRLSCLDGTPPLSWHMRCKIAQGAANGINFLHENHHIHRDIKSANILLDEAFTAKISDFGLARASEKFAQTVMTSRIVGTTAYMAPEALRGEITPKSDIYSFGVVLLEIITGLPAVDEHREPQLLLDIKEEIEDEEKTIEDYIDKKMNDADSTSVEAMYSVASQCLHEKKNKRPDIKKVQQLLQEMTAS
Description: IRAK4 degradation activity in hPBMC cells (24 hours). In kind it is cell-based. Particulars: for Remaining IRAK4 protein IRAK4%: 100 nM, relative to vehicle control. Here is the method: hPBMC cells are human peripheral blood mononuclear cells. Peripheral venous blood was taken from healthy volunteers, and hPBMCs were isolated using Ficoll density gradient centrifugation (Ficoll-Paque™ PLUS 1.077, GE, Cat. 17-1140-02). Culture conditions: RPMI-1640+10% FBS+1% penicillin-streptomycin solution. The cells were cultured in an incubator at 37° C. and 5% CO2. The cells were plated in a 24-well plate at 1×10^6 cells/well. After plating, compounds at different concentrations were added, and the cells were cultured in an incubator at 37° C. and 5% CO2 for 24 hours. After the culture was completed, the cells were collected, and RIPA lysis buffer (beyotime, Cat. P0013B) was added. The cells were lysed on ice for 20 minutes, and then centrifuged at 12000 rpm at 4° C. for 10 minutes. The protein sample of the supernatant was collected, the protein was quantified using a BCA kit (Beyotime, Cat. P0009), and then the protein was diluted to 1 mg/mL. The expression of IRAK4 (CST, Cat. 4363S) and the internal reference cofilin (CST, Cat. 5175S) were detected using a fully automated western blot quantitative analyzer (Proteinsimple). The expression level of IRAK4 relative to the internal reference was calculated using compass software. The remaining IRAK4 protein IRAK4% relative to the vehicle control group at different doses was calculated using formula (1), and the IRAK4 protein degradation relative to the vehicle control group at different doses was calculated using formula (2), where IRAK4administration was the expression level of IRAK4 in the administration groups at different doses, and IRAK4vehicle was the expression level of IRAK4 in the vehicle control group. An IRAK4 degradation-drug concentration curve was fit using Graphpad Prism 8 software, and the DC50 was calculated.

For data set [1], the target named is T2, hERG potassium ion channel (Homo sapiens, UniProt Q12809).
T2 construct: expressed in transfected cells; host or cells: CHO (Chinese hamster ovary) cells stably expressing hERG
Kind of data set: Effect on hERG potassium ion channel (manual patch-clamp, CHO cells). The format is cell-based. The settings on record: CHO cells stably expressing hERG, whole cell patch-clamp. From the text:
Experimental platform: electrophysiological manual patch-clamp system
Cell line: Chinese hamster ovary (CHO) cell line stably expressing hERG potassium ion channel
Experimental method: In CHO (Chinese Hamster Ovary) cells stably expressing hERG potassium channel, whole cell patch-clamp technique was used to record hERG potassium channel current at room temperature. The glass microelectrode was made of a glass electrode blank (BF150-86-10, Sutter) by a puller. The tip resistance after filling the liquid in the electrode was about 2-5 MQ. The glass microelectrode can be connected to the patch-clamp amplifier by inserting the glass microelectrode into an amplifier probe. The clamping voltage and data recording were controlled and recorded by the pClamp 10 software through a computer. The sampling frequency was 10 kHz, and the filtering frequency was 2 kHz. After the whole cell records were obtained, the cells were clamped at −80 mV, and the step voltage that induced the hERG potassium current (lhERG) was depolarized from −80 mV to +20 mV for 2 s, then repolarized to −50 mV, and returned to −80 mV after 1 s. This voltage stimulation was given every 10 s, and the administration process was started after the hERG potassium current was confirmed to be stable (at least 1 minute). The compound was administered for at least 1 minute at each test concentration, and at least 2 cells (n≥2) were tested at each concentration.
Data processing: Data analysis processing was carried out by using pClamp 10, GraphPad Prism 5 and Excel software. The inhibition degree of hERG potassium current (peak value of hERG tail current induced at −50 mV) at different compound concentrations was calculated by the following formula:
[formula] • where Inhibition % represents the percentage of inhibition of hERG potassium current by the compound, and l and lo represent the amplitude of hERG potassium current after and before the administration, respectively.
Compound IC50 was calculated using GraphPad Prism 5 software by fitting according to the following equation:
[formula] • where X represents the Log value of the tested concentration of the test sample, Y represents the inhibition percentage at the corresponding concentration, and Bottom and Top represent the minimum and maximum inhibition percentage, respectively.
In general terms: hERG is a cardiac potassium channel; its block is linked to QT prolongation.

Data set [2] in a line: Pharmacokinetic test in mice. In kind it is in vivo, ICR mice. The settings on record: male, ICR, mouse, plasma, po, 10 mg/kg, i.g. 10 mg/kg, read-out: AUC0-t. As to the method: Experimental animals: Male ICR mice, about 25 g, 6 mice/compound, purchased from Chengdu Ddossy Experimental Animals Co., Ltd.
Test design: On the day of the experiment, 6 ICR mice were randomly grouped according to their body weights. The animals were fasted with water available for 12 to 14 h one day before the administration, and were fed 4 h after the administration.
• Vehicle for intravenous administration: 5% DMA+5% Solutol+90% Saline; • Vehicle for intragastric administration: 5% DMSO+30% PEG400+65% (20% SBE-CD); (DMSO: dimethyl sulfoxide; DMA: dimethylacetamide; Solutol: polyethylene glycol-15-hydroxystearate; PEG400: polyethylene glycol 400; SBE-β-CD: sulfobutyl-β-cyclodextrin; Saline: physiological saline)
Before and after the administration, 0.15 mL of blood was taken from the orbit of the animals under isoflurane anesthesia and placed in an EDTAK2 centrifuge tube. The blood was centrifuged at 5000 rpm and 4° C. for 10 min to collect plasma. The blood collection time points for the intravenous administration group and intragastric administration group were 0 min, 5 min, 15 min, 30 min, 1 h, 2 h, 4 h, 7 h and 24 h. Before analysis and detection, all samples were stored at −60° C. The samples were analyzed quantitatively by LC-MS/MS.

Setting [3] is: read-out: IC50 for inhibitory effect on hERG potassium channel current.

T2 sequence (Q12809 whole entry): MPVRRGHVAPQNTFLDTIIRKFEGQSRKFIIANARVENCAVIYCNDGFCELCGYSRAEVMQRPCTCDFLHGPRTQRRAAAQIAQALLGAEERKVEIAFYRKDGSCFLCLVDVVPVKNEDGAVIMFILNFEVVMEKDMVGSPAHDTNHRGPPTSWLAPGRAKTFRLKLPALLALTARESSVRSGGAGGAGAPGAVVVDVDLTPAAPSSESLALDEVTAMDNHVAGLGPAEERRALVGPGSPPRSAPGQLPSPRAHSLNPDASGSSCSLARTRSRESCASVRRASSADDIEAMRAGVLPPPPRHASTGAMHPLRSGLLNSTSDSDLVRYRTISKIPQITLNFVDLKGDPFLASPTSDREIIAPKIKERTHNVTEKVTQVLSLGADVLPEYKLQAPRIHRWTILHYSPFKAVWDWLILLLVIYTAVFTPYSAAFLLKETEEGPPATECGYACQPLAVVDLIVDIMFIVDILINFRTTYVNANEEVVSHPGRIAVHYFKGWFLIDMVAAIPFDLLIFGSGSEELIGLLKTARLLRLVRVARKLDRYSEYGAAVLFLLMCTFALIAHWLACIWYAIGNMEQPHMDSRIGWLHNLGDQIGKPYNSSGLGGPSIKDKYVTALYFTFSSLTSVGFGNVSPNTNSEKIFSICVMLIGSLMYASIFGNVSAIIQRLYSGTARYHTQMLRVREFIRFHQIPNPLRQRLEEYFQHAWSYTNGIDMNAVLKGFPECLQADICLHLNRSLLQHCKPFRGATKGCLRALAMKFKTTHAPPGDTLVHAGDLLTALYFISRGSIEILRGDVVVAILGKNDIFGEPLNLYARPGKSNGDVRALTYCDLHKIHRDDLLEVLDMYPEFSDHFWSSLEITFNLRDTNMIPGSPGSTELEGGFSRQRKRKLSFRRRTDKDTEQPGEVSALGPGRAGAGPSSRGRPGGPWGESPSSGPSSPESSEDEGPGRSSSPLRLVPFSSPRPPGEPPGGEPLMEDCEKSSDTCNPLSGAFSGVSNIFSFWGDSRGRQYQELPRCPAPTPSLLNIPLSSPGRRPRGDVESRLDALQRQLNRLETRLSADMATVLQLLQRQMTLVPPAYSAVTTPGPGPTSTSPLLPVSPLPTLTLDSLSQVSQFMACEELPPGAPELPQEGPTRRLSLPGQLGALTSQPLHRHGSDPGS

For `[2H]C([2H])([2H])n1nc(C2CCC(=O)NC2=O)c2cccc(C#CCOC3CCN(C[C@H]4CC[C@H](n5cc(NC(=O)c6cnn7ccc(N8C[C@H]9C[C@@H]8CO9)nc67)c(C(F)F)n5)CC4)CC3)c21` (relative stereo) [Compound 7, Trans-5-((1R,4R)-2-oxa-5-azabicyclo[2.2.1]heptan-5-yl)-N-(3-(difluoromethyl)-1-(4-((4-((3-(3-(2,6-dioxopiperidin-3-yl)-1-(methyl-d3)-1H-indazol-7-yl)prop-2-yn-1-yl)oxy)piperidin-1-yl)methyl)cyclohexyl)-1H-pyrazol-4-yl) pyrazolo[1,5-a]pyrimidine-3-carboxamide], at IRAK4 protein, the “Remaining IRAK4 protein IRAK4%” value was “A (A ≤ 10%)”.

As to `CC(C)n1nc(C2CCC(=O)NC2=O)c2cccc(C#CCOC3CCN(C[C@H]4CC[C@H](n5cc(NC(=O)c6cnn7ccc(N8C[C@H]9C[C@@H]8CO9)nc67)c(C(F)F)n5)CC4)CC3)c21` (single isomer, unassigned) [Chiral isomer 1 of compound 8], at IRAK4 protein, the “Remaining IRAK4 protein IRAK4%” value was “B (10% < B ≤ 50%)”.

Regarding `Cn1nc(C2CCC(=O)NC2=O)c2cccc(C#CCO[C@H]3CCN(C[C@H]4CC[C@H](n5cc(NC(=O)c6cnn7ccc(N8CCO[C@@H](CO)C8)nc67)c(C(F)F)n5)CC4)C[C@H]3F)c21` (single isomer, unassigned) [Chiral isomer 1 of compound 24], the concentration for half-maximal inhibition (IC50) (as a rule, the point on the concentration scale where inhibition reaches its midpoint) in data set [1] (setting [3]) was over 40000 nM. Moreover, the DC50 (as a rule, the concentration at which degradation of the target reaches its halfway point) on IRAK4 protein was under 20 nM.

For the compound `Cn1nc(C2CCC(=O)NC2=O)c2cccc(C#CCO[C@H]3CCN(C[C@H]4CC[C@H](n5cc(NC(=O)c6cnn7ccc(N8CCO[C@H](CO)C8)nc67)c(C(F)F)n5)CC4)C[C@H]3F)c21` (single isomer, unassigned) [Chiral isomer 1 of compound 25], the IC50 in data set [1] (setting [3]) is over 40000 nM. Moreover, at IRAK4 protein, the DC50 was under 20 nM.

Take `Cn1nc(C2CCC(=O)NC2=O)c2cccc(C#CCO[C@@H]3CCN(C[C@H]4CC[C@H](n5cc(NC(=O)c6cnn7ccc(N8CCO[C@@H](CO)C8)nc67)c(C(F)F)n5)CC4)C[C@@H]3F)c21` (single isomer, unassigned) [Chiral isomer 2 of compound 19]: the half-maximal degradation concentration (DC50) on IRAK4 protein is under 20 nM.

In the case of `COC[C@H]1CN(c2ccn3ncc(C(=O)Nc4cn([C@H]5CC[C@H](CN6CC[C@H](OCC#Cc7cccc8c(C9CCC(=O)NC9=O)nn(C)c78)[C@H](F)C6)CC5)nc4C(F)F)c3n2)CCO1` (single isomer, unassigned) [Chiral isomer 2 of compound 23], the IC50 in data set [1] (setting [3]) is over 40000 nM. Moreover, the 50% degradation concentration (DC50) at IRAK4 protein was under 20 nM.

On to `Cn1nc(C2CCC(=O)NC2=O)c2cccc(C#CCO[C@H]3CCN(C[C@H]4CC[C@H](n5cc(NC(=O)c6cnn7ccc(N8CCO[C@H](CO)C8)nc67)c(C(F)F)n5)CC4)C[C@H]3F)c21` (single isomer, unassigned) [Chiral isomer 2 of compound 25], for which the IC50 in data set [1] (setting [3]) was over 40000 nM. In addition, the DC50 on IRAK4 protein was under 20 nM.

Regarding `Cn1nc(C2CCC(=O)NC2=O)c2cccc(C#CCO[C@@H]3CCN(C[C@H]4CC[C@H](n5cc(NC(=O)c6cnn7ccc(N8CCO[C@@H](CO)C8)nc67)c(C(F)F)n5)CC4)C[C@@H]3F)c21` (single isomer, unassigned) [Trifluoroacetate salt of chiral isomer 2 of compound 19], the IC50 in data set [1] (setting [3]) is over 40000 nM. Besides, in data set [2], the AUC(0-t) was found to be 8300 ± 2850 ng·h/mL.

Regarding `CN(C[C@H]1CC[C@H](n2cc(NC(=O)c3cnn4ccc(N5C[C@H]6C[C@@H]5CO6)nc34)c(C(F)F)n2)CC1)C1CCN(Cc2cccc3c(C4CCC(=O)NC4=O)nn(C)c23)CC1` (stereo partly shown) [Compound 1], at IRAK4 protein, the “Remaining IRAK4 protein IRAK4%” value is reported as “B (10% < B ≤ 50%)”.

For `CCn1nc(C2CCC(=O)NC2=O)c2cccc(C#CCOC3CCN(C[C@H]4CC[C@H](n5cc(NC(=O)c6cnn7ccc(N8C[C@H]9C[C@@H]8CO9)nc67)c(C(F)F)n5)CC4)CC3)c21` (stereo partly shown) [Compound 6], on IRAK4 protein, the “Remaining IRAK4 protein IRAK4%” value is reported as “A (A ≤ 10%)”.

Regarding `Cn1nc(C2CCC(=O)NC2=O)c2cccc(C#CCO[C@H]3CCN(C[C@H]4CC[C@H](n5cc(NC(=O)c6cnn7ccc(N8C[C@H]9C[C@@H]8CO9)nc67)c(C(F)F)n5)CC4)C[C@@H]3F)c21` (stereo partly shown) [Compound 12], in data set [1] (setting [3]), the IC50 is over 30000 nM. Besides, on IRAK4 protein, the “Remaining IRAK4 protein IRAK4%” value is “B (10% < B ≤ 50%)”.

Regarding `Cn1nc(C2CCC(=O)NC2=O)c2cccc(C#CCO[C@@H]3CCN(C[C@H]4CC[C@H](n5cc(NC(=O)c6cnn7ccc(N8C[C@H]9C[C@@H]8CO9)nc67)c(C(F)F)n5)CC4)C[C@H]3F)c21` (stereo partly shown) [Compound 13], the “Remaining IRAK4 protein IRAK4%” value at IRAK4 protein was “B (10% < B ≤ 50%)”.

As for `O=C1CCC(c2nn(C3CC3)c3c(C#CCOC4CCN(C[C@H]5CC[C@H](n6cc(NC(=O)c7cnn8ccc(N9C[C@H]%10C[C@@H]9CO%10)nc78)c(C(F)F)n6)CC5)CC4)cccc23)C(=O)N1` (stereo partly shown) [Compound 16], the “Remaining IRAK4 protein IRAK4%” value at IRAK4 protein was “A (A ≤ 10%)”.

In turn, `Cn1c(=O)n(C2CCC(=O)NC2=O)c2cccc(C#CCOC3CCN(C[C@H]4CC[C@H](n5cc(NC(=O)c6cnn7ccc(N8C[C@H]9C[C@@H]8CO9)nc67)c(C(F)F)n5)CC4)CC3)c21` (stereo partly shown) [Control compound 1, reference compound] returned an IC50 in data set [1] (IC50 for inhibitory effect on hERG potassium channel current) of 642 nM. In addition, the AUC(0-t) in data set [2] came out at 2320 ± 146 ng·h/mL.

In the case of `Cn1nc(C2CCC(=O)NC2=O)c2cccc(C#CCOC3CCN(C[C@H]4CC[C@H](n5cc(NC(=O)c6cnn7cc(F)c(N8C[C@H]9C[C@@H]8CO9)nc67)c(C(F)F)n5)CC4)CC3)c21` (stereo partly shown) [Trifluoroacetate salt of compound 15], the “Remaining IRAK4 protein IRAK4%” value on IRAK4 protein is “B (10% < B ≤ 50%)”.
